The results in this text go back to article PMC5126668 (PeerJ, 2016).

The structures appear in SMILES notation. Where “and” joins values, the source holds several entries; their conditions need not be identical. Identical values can stand only once.

The test system of data set [1] is rat kidney. As to the kind of experiment: Kim-1 in rat urine after a single oral dose (ELISA). Type of data set: in vivo, Sprague–Dawley rats. To be noted: for KIM-1: single oral dose. Background: An ELISA detects its analyte on a solid surface through an enzyme-linked reagent.
Method: (§1) The blood samples were taken 24 h after the administration of a single oral dose in each group. The samples were promptly centrifuged, and the biochemical parameters, including the levels of ALT, AST, BUN, Cr, and NAG, were then measured. The level of Kim-1 was measured in collected urine samples according to the kit instructions.
The test system of data set [2] is rat liver. As to the kind of experiment: Hepatic functional markers (ALT, AST) in rats after a single oral dose. Type of data set: in vivo, Sprague–Dawley rats. The conditions noted are these: 24 h after single oral dose, mg/kg: AA I 70, BAK 200, ABT 100, GA 100, combinations 200+100.
Method: as §1
The subject of data set [3] is rat kidney. The experiment in a line: Renal functional markers (BUN, Cr, NAG) in rats after a single oral dose. To be noted: for BUN / Cr / NAG: rats, single oral dose. The protocol: ABT, a broad-spectrum nonspecific CYP inhibitor, was selected as a positive control inhibitor of CYP enzymes. Aristolochic acid A (AA I) was selected as the nephrotoxicity positive control in the study.
The samples were promptly centrifuged, and the biochemical parameters, including the levels of ALT, AST, BUN, Cr, and NAG, were then measured. The level of Kim-1 was measured in collected urine samples according to the kit instructions.

[4] abbreviates: individual animals (Fig. 3 data).
Setting [5] is: rat, 24 h after single oral dose, vs vehicle control.

For the molecule `COc1cccc2c1cc([N+](=O)[O-])c1c(C(=O)O)cc3c(c12)OCO3` [AA I, Aristolochic acid A], the “Kim-1 level (in words)” value in data set [1] (after single oral dose, vs vehicle control) was “significantly increased”. Besides, the KIM-1 in data set [1] (group Mean (Fig. 3 data)) stood at 1538.00 pg/mL. The KIM-1 in data set [1] (setting [4]) was 804.00 pg/mL and 2994.00 pg/mL and 624.00 pg/mL and 2464.00 pg/mL. Also, in data set [2], the “ALT (IU/L)” value is on record as 41.91±3.40 IU/L and the “AST (IU/L)” value turned out to be 29.08±8.01 IU/L. In data set [3] (setting [5]), the “BUN level (in words)” value is “significantly increased”, the “Cr level (in words)” value was “significantly increased” and the “NAG level (in words)” value was “significantly increased”. Also, in data set [3] (group Mean (Fig. 3 data)), the BUN was found to be 6.405 mmol/L, the Cr is 367.877 µmol/L and the NAG turned out to be 42.409 IU/L. In data set [3] (setting [4]), the BUN is 5.797 mmol/L and 6.023 mmol/L and 6.135 mmol/L and 7.373 mmol/L and 6.698 mmol/L; the Cr was 298.782 µmol/L and 308.970 µmol/L and 369.706 µmol/L and 567.416 µmol/L and 294.508 µmol/L; the NAG is 23.912 IU/L and 43.077 IU/L and 48.176 IU/L and 27.429 IU/L and 69.451 IU/L.
